In patent US8435978B2, “Substituted sulfonamide compounds” (Gruenenthal GmbH, priority 2006, dated 2013):
Where a name gives a salt, the structure may show the parent alone.

What was measured:
human B1R receptor = biological target: T1, human B1R receptor (Homo sapiens, UniProt P46663); test: Functional study on the bradykinin receptor 1 (B1R), FLIPR Ca2+ assay, hB1R cells; type: cell-based; conditions: agonist Lys-Des-Arg9-bradykinin 0.5 nM, % inhibition compared with the maximum achievable inhibition; for inhibition at 10 µM: CHO-K1, test substance 10 μM, read-out: B1R Antagonism, human [10 μM] % Inhibition; for B1R Antagonism, human [10 μM] % Inhibition: test substance 10 μM, hB1R CHO K1 cells
T1 construct: host or cells: CHO K1 cells (Chinese hamster ovary), stably transfected
T1 sequence (P46663 1-353): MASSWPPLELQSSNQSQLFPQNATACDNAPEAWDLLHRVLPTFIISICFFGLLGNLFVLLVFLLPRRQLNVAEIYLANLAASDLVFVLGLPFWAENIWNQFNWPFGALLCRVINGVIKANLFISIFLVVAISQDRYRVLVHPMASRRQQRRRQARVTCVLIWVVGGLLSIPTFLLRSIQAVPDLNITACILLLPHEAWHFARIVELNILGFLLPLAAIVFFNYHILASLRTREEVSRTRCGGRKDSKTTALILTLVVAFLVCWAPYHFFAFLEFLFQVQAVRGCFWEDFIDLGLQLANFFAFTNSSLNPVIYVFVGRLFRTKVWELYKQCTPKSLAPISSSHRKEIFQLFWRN
How it was run: (§1)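 Readout: peak Fluo-4 Ca2+ fluorescence, FLIPR. Stable CHO K1 hB1R or rB1R cells; cpd 10 μM, 10 min preincubation, then agonist (hB1R: Lys-Des-Arg9-BK 0.5 nM; rB1R: Des-Arg9-BK 100 nM). Value = % inhibition relative to maximal achievable inhibition.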

B1R receptor of the rat = biological target: T2, B1R receptor of the rat (Rattus norvegicus, UniProt P97583); test: Functional study on the bradykinin receptor 1 (B1R), FLIPR Ca2+ assay, rB1R cells; type: cell-based; conditions: agonist Des-Arg9-bradykinin 100 nM, % inhibition compared with the maximum achievable inhibition; for inhibition at 10 µM: CHO-K1, test substance 10 μM, read-out: B1R Antagonism, rat [10 μM] % Inhibition; for B1R Antagonism, rat [10 μM] % Inhibition: test substance 10 μM, rB1R CHO K1 cells
T2 construct: host or cells: CHO K1 cells (Chinese hamster ovary), stably transfected
T2 sequence (P97583 1-337): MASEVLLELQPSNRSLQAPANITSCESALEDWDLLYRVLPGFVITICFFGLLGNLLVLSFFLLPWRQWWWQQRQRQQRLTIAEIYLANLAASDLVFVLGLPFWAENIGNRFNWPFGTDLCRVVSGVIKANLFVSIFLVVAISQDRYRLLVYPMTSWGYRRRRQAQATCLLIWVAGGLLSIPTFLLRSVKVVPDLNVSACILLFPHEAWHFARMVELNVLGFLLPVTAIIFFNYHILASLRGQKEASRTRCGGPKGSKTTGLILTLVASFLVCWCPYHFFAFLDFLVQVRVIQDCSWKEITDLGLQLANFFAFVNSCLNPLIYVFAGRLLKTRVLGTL
How it was run: as §1

Compound	inhibition at 10 µM (human B1R receptor) [%]	inhibition at 10 µM (B1R receptor of the rat) [%]	B1R Antagonism, human [10 μM] % Inhibition (human B1R receptor) [%]	B1R Antagonism, rat [10 μM] % Inhibition (B1R receptor of the rat) [%]
COc1cc(C)c(S(=O)(=O)N2CCCC2COCC(=O)NCc2ccc(N(C)C)cc2)c(C)c1 (stereo not drawn) [Example 576, N-(4-(dimethylamino)benzyl)-2-((1-(4-methoxy-2,6-dimethylphenylsulfonyl)pyrrolidin-2-yl)methoxy)acetamide]	1.85	107	–	–
COc1cc(C)c(S(=O)(=O)N2CCCCC2COCC(=O)N2Cc3ccncc3C2)c(C)c1 (stereo not drawn) [Example 206, 2-((1-(4-methoxy-2,6-dimethylphenylsulfonyl)piperidin-2-yl)methoxy)-1-(1H-pyrrol[3,4-c]pyridin-2(3H)-yl)ethanone]	–	–	53.94	99.49
COc1cc(C)c(S(=O)(=O)N2CCCC2COCC(=O)N2CCC(c3nc4cc(C)ccc4[nH]3)CC2)c(C)c1 (stereo not drawn) [Example 474, 2-((1-(4-methoxy-2,6-dimethylphenylsulfonyl)pyrrolidin-2-yl)methoxy)-1-(4-(5-methyl-1H-benzo[d]imidazol-2-yl)piperidin-1-yl)ethanone]	96.7	96.3	–	–
O=C(COCC1CCCCN1S(=O)(=O)c1ccc(Cl)c(Cl)c1)Nc1cccc(CN2CCCC2)c1 (stereo not drawn) [Example 293, 2-((1-(3,4-dichlorophenylsulfonyl)piperidin-2-yl)methoxy)-N-(3-(pyrrolidin-1-ylmethyl)phenyl)acetamide]	90.5	-6.96	–	–
COc1cc(C)c(S(=O)(=O)N2CCCCC2COCC(=O)N(Cc2ccc(N(C)C)cc2)C(C)C)c(C)c1 (stereo not drawn) [Example 367, N-(4-(dimethylamino)benzyl)-N-isopropyl-2-((1-(4-methoxy-2,6-dimethylphenylsulfonyl)piperidin-2-yl)methoxy)acetamide]	20.1	103	–	–
COc1cc(C)c(S(=O)(=O)N2CCCC2COCC(=O)N2CCCN(C)CC2)c(C)c1 (stereo not drawn) [Example 467, 2-((1-(4-methoxy-2,6-dimethylphenylsulfonyl)pyrrolidin-2-yl)methoxy)-1-(4-methyl-1,4-diazepan-1-yl)ethanone]	101	101	–	–
COc1cc(C)c(S(=O)(=O)N2CCCCC2COCC(=O)N2CCC(NCC(c3cccnc3)N3CCOCC3)CC2)c(C)c1 (stereo not drawn) [Example 136, 2-((1-(4-methoxy-2,6-dimethylphenylsulfonyl)piperidin-2-yl)methoxy)-1-(4-(2-morpholin-2-(pyridin-3-yl)ethylamino)piperidin-1-yl)ethanone]	–	–	103.97	98.94
COc1cc(C)c(S(=O)(=O)N2c3ccccc3CCC2COCC(=O)N2CCN(C3CCN(C)CC3)CC2)c(C)c1 (stereo not drawn) [Example 202, 2-((1-(4-methoxy-2,6-dimethylphenylsulfonyl)-1,2,3,4-tetrahydroquinolin-2-yl)methoxy)-1-(4-(1-methylpiperidin-4-yl)piperazin-1-yl)ethanone]	104	99.8	–	–
O=C(COCC1CCCCN1S(=O)(=O)c1c(Cl)cccc1Cl)N1CCN(c2ccc(Cl)c(Cl)c2)CC1 (stereo not drawn) [Example 404, 1-(4-(3,4-dichlorophenyl)piperazin-1-yl)-2-((1-(2,6-dichlorophenylsulfonyl)piperidin-2-yl)methoxy)ethanone]	55.1	98.5	–	–
COc1cc(C)c(S(=O)(=O)N2CCCCC2COCC(=O)N2CCC(N3CCc4cc(F)ccc4C3)CC2)c(C)c1 (stereo not drawn) [Example 200, 1-(4-(6-fluoro-3,4-dihydroisoquinolin-2(1H)-yl)piperidin-1-yl)-2-((1-(4-methoxy-2,6-dimethylphenylsulfonyl)piperidin-2-yl)methoxy)ethanone]	102	98.7	–	–
COc1cc(C)c(S(=O)(=O)N2CCCCC2COCC(=O)N2CCC(N3CCc4cnccc4C3)CC2)c(C)c1 (stereo not drawn) [Example 100, 1-(4-(3,4-dihydro-2,6-naphthyridin-2(1H)-yl)piperidin-1-yl)-2-((1-(4-methoxy-2,6-dimethylphenylsulfonyl)piperidin-2-yl)methoxy)ethanone]	104	102	–	–
COc1cc(C)c(S(=O)(=O)N2CCCC2COCC(=O)N2CCN(c3ccc(Cl)c(Cl)c3)CC2)c(C)c1 (stereo not drawn) [Example 348, 1-(4-(3,4-dichlorophenyl)piperazin-1-yl)-2-((1-(4-methoxy-2,6-dimethylphenylsulfonyl)pyrrolidin-2-yl)methoxy)ethanone]	87.1	103	–	–
2-((1-(2,6-dichlorophenylsulfonyl)piperidin-2-yl)methoxy)-N-(4-(dimethylamino)butyl)acetamide [Example 441]	–	–	103.96	98.36
COc1ccc(S(=O)(=O)N2CCCCC2COCC(=O)N2CCN(CCOc3ccccc3)CC2)cc1 (stereo not drawn) [Example 558, 2-((1-(4-methoxyphenylsulfonyl)piperidin-2-yl)methoxy)-1-(4-(2-phenoxyethyl)piperazin-1-yl)ethanone]	-3.53	103	–	–
COc1cc(C)c(S(=O)(=O)N2CCCCC2COCC(=O)N2CCN(C(=O)OC(C)(C)C)CC2)c(C)c1 (stereo not drawn) [Example 101, tert-butyl 4-(2-((1-(4-methoxy-2,6-dimethylphenylsulfonyl)piperidin-2-yl)methoxy)acetyl)piperazin-1-carboxylate]	100	100	–	–
COc1cc(C)c(S(=O)(=O)N2CCCC2COCC(=O)NCc2ccc(CN(C)C)cc2)c(C)c1 (stereo not drawn) [Example 35, N-(4-dimethylaminomethyl-benzyl)-2-[1-(4-methoxy-2,6-dimethyl-phenylsulfonyl)-pyrrolidin-2-ylmethoxy]-acetamide]	79.7	99	–	–
COc1cc(C)c(S(=O)(=O)N2CCCCC2COCC(=O)NCc2cccc(N3CCN(C)CC3)c2)c(C)c1 (stereo not drawn) [Example 433, 2-((1-(4-methoxy-2,6-dimethylphenylsulfonyl)piperidin-2-yl)methoxy)-N-(3-(4-methylpiperazin-1-yl)benzyl)acetamide]	103	100	–	–
COc1cc(C)c(S(=O)(=O)N2CC[C@H]2COCC(=O)N2CCN(C3CCN(C)CC3)CC2)c(C)c1 [Example 135, (S)-2-((1-(4-methoxy-2,6-dimethylphenylsulfonyl)azetidin-2-yl)methoxy)-1-(4-(1-methylpiperidin-4-yl)piperazin-1-yl)ethanone]	103	98.3	–	–
COc1cc(C)c(S(=O)(=O)N2CCCCC2COCC(=O)N2CCN(c3ccc4c(N5CCCC5)ncnc4c3)CC2)c(C)c1 (stereo not drawn) [Example 168, 2-((1-(4-methoxy-2,6-dimethylphenylsulfonyl)piperidin-2-yl)methoxy)-1-(4-(4-(pyrrolidin-1-yl)quinazolin-7-yl)piperazin-1-yl)ethanone]	93.8	98.4	–	–
COc1ccc(S(=O)(=O)N2Cc3ccccc3CC2COCC(=O)N2CCC(CCN3CCCCC3)CC2)cc1 (stereo not drawn) [Example 69]	–	–	53.64	82.89
CN1CCC(N2CCN(C(=O)COCC3CCCCN3S(=O)(=O)c3c(Cl)cccc3Cl)CC2)CC1 (stereo not drawn) [Example 141, 2-((1-(2,6-dichlorophenylsulfonyl)piperidin-2-yl)methoxy)-1-(4-(1-methylpiperidin-4-yl)piperazin-1-yl)ethanone dihydrochloride]	101	101	–	–
O=C(COCC1CCCCN1S(=O)(=O)c1ccc(Cl)c(Cl)c1)N1CCN(c2ccc(F)cc2)CC1 (stereo not drawn) [Example 59, 2-[1-(3,4-dichloro-phenylsulfonyl)-piperidin-2-ylmethoxy]-1-[4-(4-fluoro-phenyl)-piperazin-1-yl]-ethanone]	61.5	0	–	–
O=C(COCC1CCCCN1S(=O)(=O)c1c(Cl)cc(Cl)cc1Cl)NCc1ccncc1 (stereo not drawn) [Example 394, N-(pyridin-4-ylmethyl)-2-((1-(2,4,6-trichlorophenylsulfonyl)piperidin-2-yl)methoxy)acetamide]	31.5	99.1	–	–
COc1cc(C)c(S(=O)(=O)N2CCCCC2COCC(=O)N2CCN(Cc3cnc(N(C)C)nc3)CC2)c(C)c1 (stereo not drawn) [Example 199, 1-(4-((2-(dimethylamino)pyrimidin-5-yl)methyl)piperazin-1-yl)-2-((1-(4-methoxy-2,6-dimethylphenylsulfonyl)piperidin-2-yl)methoxy)ethanone]	104	101	–	–
